Reference: PMC7760004, “Hydrocarbon-Stapled Peptide Based-Nanoparticles for siRNA Delivery” (Nanomaterials, 2020)
Peptide text beside a SMILES is read from it. * marks the point of attachment. FITC = O=C1OC2(c3ccc(O)cc3Oc3cc(O)ccc32)c2ccc(NC(=S)*)cc21; Ahx = NCCCCCC(=O)O

How the values were obtained:
[1] = system: MDA-MB-231 cells; assay: Cellular uptake of FITC-stapled peptides (plate-reader fluorescence); details: MDA-MB-231, 5 µM FITC-peptide, 4 h
Procedure: MDA-MB-231 cells were seeded in black 96-well plate in 200 μL of their corresponding medium. After 24 h of cell growth, cells were treated with 5 µM concentration of FITC-stapled peptides for 4 h. Total fluorescence (TF) was measured using CLARIOstar® High Performance Monochromator Multimode Microplate Reader (BMG Labtech, Ortenberg, Germany) at excitation/emission of 483-14/530-30 nm. Cells were washed three times with PBS and remaining fluorescence (RF) was measured using the same conditions. The percentage of uptake values were presented as relative mean fluorescence and normalized with respect to Penetratin used as a standard control and set at 100%.

[2] = Circular dichroism, determination of helical content; format: physicochemical; details: water/TFE (95/5)
Procedure: Circular dichroism experiments were carried out using a Jasco J815 spectropolarimeter. Spectra (Jasco, Easton, MD, USA) were typically recorded with 100 μM of peptides dissolved in a water/TFE mixture (95/5), pH 7, using a 1 mm pathlength CD cuvette at 20 °C, over a wavelength range of 190–260 nm. The peptide concentrations were normalized measuring the OD at 490 nm considering a molar coefficient extinction (ε490) for the FITC of 76,900 cm^−1 M^−1. Continuous scanning mode was used, with a response of 1.0 s with 0.1 nm steps and a bandwidth of 2 nm. The signal to noise ratio was improved by acquiring each spectrum over an average of two scans. Baseline was corrected by subtracting the background from the sample spectrum. Alpha helical content was determined using the following equation: % Helix = ([θ])obs × 100)/(−39,500 × (1 − 2.57/n), where ([θ])obs is the mean residue ellipticity at 222 nm and n the number of peptide bonds.

CC[C@H](C)[C@H](NC(=O)[C@H](C)NC(=O)[C@H](CCCNC(=N)N)NC(=O)[C@H](CCCNC(=N)N)NC(=O)CCCCCNC(=S)Nc1ccc2c(c1)C(=O)OC21c2ccc(O)cc2Oc2cc(O)ccc21)C(=O)N[C@H](C(=O)N[C@H](C(=O)N[C@@H](C)C(=O)N[C@@H](CCCNC(=N)N)C(=O)N[C@@H](CCCNC(=N)N)C(=O)N[C@@H](CS)C(N)=O)[C@@H](C)CC)[C@@H](C)CC [JMV6579] ({FITC-Ahx}-RRAIIIARRC-NH2)
ability to enter cells (uptake, in words) [1]: almost not able to enter cells | α Helix (%) ([2]; CD, 100 μM peptide, pH 7, 20 °C, from mean residue ellipticity at 222 nm): 5% | CD profile (folding) ([2]; far-UV CD, 20 °C): remained partially unfolded
